Laboratory results from patent US20090028842A1, “Dekkera/Brettanomyces Cytosine Deaminases And Their Use” (ZGene A/S, priority 2005, published 2009).

Experiments:
[1] = test system: PANC-1; test: XTT cell proliferation assay, untransduced PANC-1; assay type: cell-based; conditions: Homo sapiens; untransduced PANC-1, 96-120 hours of drug exposure
Method: (§1) Cancer cells were purchased from the American Type Culture Collection. Cells were cultured in RPMI, E-MEM or D-MEM with 10% (v/v) Australian originated foetal calf serum and 1 ml/l of gentamicin. Cells were grown at 37° C. in a humidified incubator with a gas phase of 5% CO2. The cells were transduced with the retrovirus containing medium mixed with 5 μg/ml of Polybrene, incubated for 48 hours and then cultured continuously for 3 weeks in the presence of 300-400 μg/ml Genetecin® (Life Technologies Inc.).
(§2) Cells were plated at densities range of 1.500-3.500 cells/well in 96-well plates coated with poly-L-lysine (Sigma). 5-FC was added after 24 hours of incubation. Each experiment was performed in four replicates. Cell survival was assayed after 96-120 hours of drug exposure by XTT cell proliferation kit (Roche). The data was corrected for background media-only absorbance where after the 50% cell killing drug concentration (IC50 value) was calculated using SigmaPlot® (SPSS Science, Dyrberg Trading, Denmark).

[2] = test system: MCF7 cell line transduced with pLCXSN; test: XTT cell proliferation assay, MCF7 transduced with empty vector pLCXSN; assay type: cell-based; conditions: Homo sapiens
Description: (§3) ORFs were amplified with Accuzyme DNA polymerase (Bioline) using primers with designed flanking restriction enzyme sites and containing Kozak sequence at 5′ end. D. bruxellensis CD constructs were cloned into the retrovirus vector pLCXSN. The vector is based on pLXSN (Clontech) to which the CMV promoter has been cloned into the polylinker site to form pLCXSN. The constructs obtained was named DbCDCvir (PZG917). pLCXSN alone was used as a control. The plasmids were purified using the Qiagen plasmid kit (QIAGEN) and DNA sequences were verified by DNA sequence determination. HE 293 T packaging cells (ATCC CRL-11268) were cultured at 37° C. in OPTIMEM 1 medium (Life Technologies, Inc.) The constructed retrovirus vectors were transfected into the packaging cells using LipofectAMINE PLUS (Life Technologies, Inc.) according to the protocol provided by the supplier. The medium from the transfected cells was collected 48 hours after transfection, filtered through a 0.45 μm filter, pelleted by ultracentrifugation (50.000×g, 90 minutes at 4° C.) and dissolved in D-MEM.
Cancer cells were purchased from the American Type Culture Collection. Cells were cultured in RPMI, E-MEM or D-MEM with 10% (v/v) Australian originated foetal calf serum and 1 ml/l of gentamicin. Cells were grown at 37° C. in a humidified incubator with a gas phase of 5% CO2. […]

[3] = test system: D. bruxellensis; test: Growth of D. bruxellensis on plates containing 5-FC; assay type: cell-based, Dekkera bruxellensis; conditions: after 5 days
Method: (§4) The yeast strains used in this work are: Dekkera bruxellensis (Y872, CBS 1943), D. bruxellensis (Y879, CBS 2499), D. bruxellensis (CBS 4480, CBS 4481), D. anomala (CBS 76, CBS 77, CBS 1938, CBS 1947), Brettanomyces nanus (CBS 1945), B. nanus (CBS 1955, CBS 1956), M. reukauffii (CBS 2266), B. custersianus (CBS 4805), B. naardensis (CBS 6042), S. kluyveri Y057 (NRRL Y-12651), and S. cerevisiae Y051 (NRRL Y-12632). Yeast strains were grown at 25° in YPD medium (1% yeast extract, 2% bacto peptone, 2% glucose) or in defined minimal (SD) medium (1% succinic acid, 0.6% NaOH, 2% glucose, 0.67% yeast nitrogen base without amino acids from Difco). When indicated, (NH4)2SO4 was replaced with 0.1% cytosine as the sole nitrogen source giving N-minimal medium. The growth rate was determined in liquid medium by following the optical density at 600 nm. The E. coli strain TOP10 (Invitrogen) was used for plasmid amplification. Bacteria were grown at […] in Luria-Bertani medium supplemented with 100 mg/l of ampicillin for selection. The E. coli BL21-DE3 (Invitrogen) strain was used for heterologous protein expression.
(§5) The majority of yeast can utilize cytosine as sole source of nitrogen by using CD to cleave cytosine to ammonia (a source of nitrogen) and uracil. To test for the ability of Dekkera yeast for growth on cytosine, Y872 was spotted on N-minimal media containing 0.1% cytosine. […]

[4] = test system: S. cerevisiae; test: Growth of S. cerevisiae on plates containing 5-FC; assay type: cell-based, Saccharomyces cerevisiae
Method: as §4, §5

[5] = test system: MCF7; test: XTT cell proliferation assay, untransduced MCF7; assay type: cell-based; conditions: Homo sapiens; untransduced MCF7, 96-120 hours of drug exposure
Method: as §1, §2

[6] = test system: MCF7 cell line transduced with Db CD gene; test: XTT cell proliferation assay, MCF7 transduced with D. bruxellensis cytosine deaminase; assay type: cell-based, human
Description: as §3, §1, §2

[7] = test system: Dekkera/Brettanomyces strains; test: Growth of various Dekkera/Brettanomyces strains on plates containing 5-FC; assay type: cell-based; conditions: all tested Dekkera and Brettanomyces species, after 5 days
Method: as §4
(§6) In FIG. 2 it can be seen that all the tested Dekkera/Brettanomyces strains are particularly susceptible to 5-FC, as growth is inhibited at 0.1 or at least at 0.36 μM 5.FC. For comparison, S. cerevisiae (FIG. 1) and M. reukauffii (FIG. 2) strains are included.

[8] = test system: Metschnikowia reukauffii; test: Growth of control strain Metschnikowia reukauffii on plates containing 5-FC; assay type: cell-based; conditions: 0.1 or 0.36 μM 5-FC, 5 days
Method: as §4, §6

[9] = test system: U87MG; test: XTT cell proliferation assay, untransduced U87MG; assay type: cell-based; conditions: Homo sapiens, U-87 MG, 96-120 hours of drug exposure
Method: as §1, §2

[10] = test system: HT-29; test: XTT cell proliferation assay, untransduced HT-29; assay type: cell-based; conditions: Homo sapiens; untransduced HT-29, 96-120 hours of drug exposure
Method: as §1, §2

[11] = test system: Dekkera/Brettanomyces yeasts; test: Sensitivity of Dekkera/Brettanomyces yeasts to G418; assay type: cell-based; conditions: addition of 200 μg/ml; almost all yeasts tested
Description: There are no suitable auxotrophic markers or efficient transformation system to work with these yeasts. […] Using degenerative primers described in this study it was not possible to amplify CD genes from D. anomala, B. nanus, B. naardenensis and B. custersianus probably due to presence of introns in these genes. Therefore we designed a selection system based on Dekkera bruxellensis CD1 promoter and G418 resistance marker coding for 3′aminoglycoside-phosphotransferase. G418 is a ribosomal inhibitor in many eukaryotic cells but many yeast species are not sensitive to G418. However, almost all Dekkera/Brettanomyces yeasts tested were sensitive to addition of 200 μg/ml. Since G418 cannot be used in medium with high salt concentration (like SD medium) use of CD1 promoter which had activity in YPD medium (low salt) will permit expression of G418 gene and ultimately lead to resistance to G418 and enable direct selection of yeast colonies containing this gene. Cloning strategy was as described: pYES2 vector was cut with AgeI/HindIII restriction enzymes and fragment of app. 440 bp containing GAL promoter was removed. Promoter of 1075 bp from Y872 CD1 gene was cloned into AgeI/HindIII site resulting in pDbCD1p plasmid. The ORF from G418 gene (Acc. nr. S78175) was cloned under control of CD1 promoter into BamHI/EcoRI site. […]

[12] = assay type: physicochemical
Method: Purified and his-tagged CD from D. bruxellensis and S. cerevisiae CD were assayed after different periods of storage at 50° C. and 37° C. (FIGS. 8a and 8b). Indeed, D. bruxellensis CD was extremely stable at 50° C. when compared to S. cerevisiae CD which lost all activity after only 4 minutes. Half life for D. bruxellensis CD at 50° C. was app. 3 hours (FIG. 8a). […] It should be observed that the temperature stability of the proteins without his-tags could be different.

[13] = CD activities with purified his-tagged proteins; assay type: biochemical; conditions: purified his-tagged protein, 37° C., cytosine 500 μM, triplicates, mean with standard deviation
Method: For recombinant protein expression, E. coli cells were grown to a density of A600 nm=0.5-0.6 in LB medium supplemented with 100 μg/ml ampicillin, and the expression was induced with 10 μM IPTG for 8 h at 25° C. The cells were harvested by centrifugation, and the pellet was resuspended in 25 ml ice-cold binding buffer A […] (50 mM sodium phosphate pH 8.0; 300 mM NaCl; 10% glycerol; 25 mM imidazole) containing protease inhibitor cocktail (Complete™-EDTA free from Roche Diagnostics). The cells were homogenized using a French Press, subjected to centrifugation at 12,000×g for 30 minutes (4° C.), filtered through a […] Whatman glass microfiber filter and a […] cellulose acetate filter, and loaded onto a 5 ml Ni^2+-NTA column (Qiagen). […]
Bacteria or cell lines were grown as described, harvested and stored at −80° C. until activity testing. […] Cytosine deaminase activities were determined spectrophotometrically by monitoring the absorbance decrease at 286 nm (Δε286=−0.68 mM^−1 cm^−1) resulting from the deamination of cytosine to uracil. […]
To characterize the substrate specificities of yeast CDs, purified proteins were measured at 37° C. and fixed cytosine concentration and assays was performed as described in Example 1 (Enzyme assays) (Table 3).

## Nc1nc(=O)[nH]cc1F [5-FC, 5-fluorocytosine]
[1]
  IC50: 2000 to 5000 µM
[2]
  IC50: 9290 µM
[3]
  5-FC concentration at which growth inhibition was observed: 0.1 µM
  5-FC concentration at which there was no visible growth: 0.36 µM
[4]; S. cerevisiae control strain, 0.1 or 0.36 μM 5-FC, 5 days
  Growth on plates with 5-FC: not inhibited
[4]; S. cerevisiae, plates, after 5 days
  5-FC concentration at which growth was first inhibited: 1 µM
[5]
  IC50: 2000 to 5000 µM
[6]; Homo sapiens, MCF7, MCF7 transduced with D. bruxellensis cytosine deaminase
  IC50: 2400 µM
[6]; MCF7 transduced with D. bruxellensis cytosine deaminase
  IC50: 2440 µM
[6]; MCF7 with Db CD versus empty vector
  sensitivity increase towards 5-FC: 4 fold
[7]
  5-FC concentration at which growth inhibition was observed: ≤ 0.36 µM
[8]
  Growth on plates with 5-FC: not inhibited
[9]
  IC50: 2000 to 5000 µM
[10]
  IC50: 2000 to 5000 µM

## CN[C@@H]1[C@@H](O)[C@@H](O[C@@H]2[C@@H](O)[C@H](O[C@H]3O[C@H]([C@@H](C)O)[C@@H](O)[C@H](O)[C@H]3N)[C@@H](N)C[C@H]2N)OC[C@]1(C)O [G418]
[11]
  Sensitivity to G418: sensitive

B1: Db CD (PZG893): cytosine deaminase from Dekkera bruxellensis (SEQ ID NO 2), recombinant his-tagged protein (protein, listed as Dekkera bruxellensis)
chain: MTFDDKLGMQVAFEEAKKGFEEGGVPIGACLLTEEGKVIGRGHNMRVQKSSATLHGETSCFENAGRLPASVYKKCTLYTTLSPCSMCSGAALLFKIPRIVLGENETFVGAEKWLESNGVEVVNVHNKECKNLMDRFIKEKPEVWNEDIGE
modifications: His tag
[12]
  Half life: ~3 h
  Stability compared to S. cerevisiae CD: more stable
[13]
  CD activity, Cytosine: 176.5 ± 5.3 U/mg/min
